# Source: ChEMBL document CHEMBL3745631, “Discovery of highly potent and selective Bruton's tyrosine kinase inhibitors: Pyridazinone analogs with improved metabolic stability” (Bioorg Med Chem Lett, 2016)
# What was measured:
# [1] = target: Serine/threonine-protein kinase 3 (Homo sapiens) (UniProt Q13188); experiment: Inhibition of MST2 (unknown origin) at 1 uM
# [2] = target: DNA-dependent protein kinase catalytic subunit (Homo sapiens) (UniProt P78527); experiment: Inhibition of DNA-PK (unknown origin) at 1 uM
# [3] = target: Serine/threonine-protein kinase 33 (Homo sapiens) (UniProt Q9BYT3); experiment: Inhibition of STK33 (unknown origin) at 1 uM
# [4] = Oral bioavailability in rat at 5 mg/kg by LC-MS/MS analysis; assay type: ADME, organism-based; details: in vivo
# [5] = target: Mitogen-activated protein kinase kinase kinase 2 (Homo sapiens) (UniProt Q9Y2U5); experiment: Inhibition of MEKK2 (unknown origin) at 1 uM
# Chain of Mitogen-activated protein kinase kinase kinase 2 (Homo sapiens) (Q9Y2U5 whole entry): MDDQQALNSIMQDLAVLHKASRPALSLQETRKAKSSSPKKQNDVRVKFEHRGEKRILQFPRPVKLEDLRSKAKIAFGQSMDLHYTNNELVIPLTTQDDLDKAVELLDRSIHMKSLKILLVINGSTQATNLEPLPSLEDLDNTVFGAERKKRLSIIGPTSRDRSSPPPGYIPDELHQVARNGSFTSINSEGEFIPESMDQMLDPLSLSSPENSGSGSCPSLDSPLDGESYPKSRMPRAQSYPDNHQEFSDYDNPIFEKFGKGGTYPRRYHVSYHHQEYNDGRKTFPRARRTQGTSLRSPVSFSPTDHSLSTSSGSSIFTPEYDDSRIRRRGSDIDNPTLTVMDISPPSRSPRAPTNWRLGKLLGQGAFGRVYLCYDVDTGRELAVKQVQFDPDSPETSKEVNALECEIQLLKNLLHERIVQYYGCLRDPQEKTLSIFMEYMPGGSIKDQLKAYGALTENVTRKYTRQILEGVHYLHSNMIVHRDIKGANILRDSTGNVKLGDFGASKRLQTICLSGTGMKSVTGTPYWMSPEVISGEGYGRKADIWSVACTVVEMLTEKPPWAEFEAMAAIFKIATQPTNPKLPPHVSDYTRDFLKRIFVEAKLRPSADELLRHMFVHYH
# [6] = target: Calcium/calmodulin-dependent protein kinase type 1D (Homo sapiens) (UniProt Q8IU85); experiment: Inhibition of CaMK1 delta (unknown origin) at 1 uM
# Chain of Calcium/calmodulin-dependent protein kinase type 1D (Homo sapiens) (Q8IU85 whole entry, looked up): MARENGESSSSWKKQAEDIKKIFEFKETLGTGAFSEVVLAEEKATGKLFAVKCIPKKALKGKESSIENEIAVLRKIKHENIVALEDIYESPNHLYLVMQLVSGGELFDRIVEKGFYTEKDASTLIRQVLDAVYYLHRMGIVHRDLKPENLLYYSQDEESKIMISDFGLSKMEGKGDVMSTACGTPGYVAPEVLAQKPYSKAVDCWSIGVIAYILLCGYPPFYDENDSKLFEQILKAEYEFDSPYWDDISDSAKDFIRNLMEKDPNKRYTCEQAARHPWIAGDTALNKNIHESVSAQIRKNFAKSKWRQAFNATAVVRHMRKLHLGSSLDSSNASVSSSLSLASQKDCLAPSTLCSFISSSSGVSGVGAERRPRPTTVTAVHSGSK
# [7] = target: Serine/threonine-protein kinase Sgk1 (Homo sapiens) (UniProt O00141); experiment: Inhibition of SGK1 (unknown origin) at 1 uM
# [8] = target: Proto-oncogene tyrosine-protein kinase receptor Ret (Homo sapiens) (UniProt P07949); experiment: Inhibition of Ret (unknown origin) at 1 uM
# [9] = target: Tyrosine-protein kinase receptor TYRO3 (Homo sapiens) (UniProt Q06418); experiment: Inhibition of Rse (unknown origin) at 1 uM
# [10] = target: Serine/threonine-protein kinase TBK1 (Homo sapiens) (UniProt Q9UHD2); experiment: Inhibition of TBK1 (unknown origin) at 1 uM
# [11] = target: Maternal embryonic leucine zipper kinase (Homo sapiens, UniProt Q14680); experiment: Inhibition of MELK (unknown origin) at 1 uM
# [12] = target: Serine/threonine-protein kinase Nek1 (Homo sapiens) (UniProt Q96PY6); experiment: Inhibition of NEK1 (unknown origin) at 1 uM
# [13] = target: Serine/threonine-protein kinase DCLK2 (Homo sapiens) (UniProt Q8N568); experiment: Inhibition of DCAMKL2 (unknown origin) at 1 uM
# [14] = target: G protein-coupled receptor kinase 6 (Homo sapiens) (UniProt P43250); experiment: Inhibition of GRK6 (unknown origin) at 1 uM
# Chain of G protein-coupled receptor kinase 6 (Homo sapiens) (P43250 whole entry, looked up): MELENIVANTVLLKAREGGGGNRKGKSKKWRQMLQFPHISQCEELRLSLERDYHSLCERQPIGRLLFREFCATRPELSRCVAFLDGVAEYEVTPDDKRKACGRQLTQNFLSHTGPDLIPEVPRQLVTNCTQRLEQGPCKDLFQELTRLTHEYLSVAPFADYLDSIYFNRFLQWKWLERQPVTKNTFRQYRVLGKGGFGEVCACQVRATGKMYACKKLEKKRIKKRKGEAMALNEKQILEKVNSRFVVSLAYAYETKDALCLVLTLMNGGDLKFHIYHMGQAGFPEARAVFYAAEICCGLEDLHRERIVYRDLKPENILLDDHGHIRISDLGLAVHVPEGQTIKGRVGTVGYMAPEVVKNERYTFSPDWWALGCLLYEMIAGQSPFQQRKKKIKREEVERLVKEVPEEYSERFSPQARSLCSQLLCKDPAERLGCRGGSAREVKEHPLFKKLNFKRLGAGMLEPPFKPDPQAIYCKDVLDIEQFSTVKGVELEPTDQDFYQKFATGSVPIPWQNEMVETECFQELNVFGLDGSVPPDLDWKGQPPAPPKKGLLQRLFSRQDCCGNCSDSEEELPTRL
# [15] = target: Receptor-type tyrosine-protein kinase FLT3 (Homo sapiens) (UniProt P36888); experiment: Inhibition of Flt3 (unknown origin) at 1 uM
# Chain of Receptor-type tyrosine-protein kinase FLT3 (Homo sapiens) (P36888 whole entry): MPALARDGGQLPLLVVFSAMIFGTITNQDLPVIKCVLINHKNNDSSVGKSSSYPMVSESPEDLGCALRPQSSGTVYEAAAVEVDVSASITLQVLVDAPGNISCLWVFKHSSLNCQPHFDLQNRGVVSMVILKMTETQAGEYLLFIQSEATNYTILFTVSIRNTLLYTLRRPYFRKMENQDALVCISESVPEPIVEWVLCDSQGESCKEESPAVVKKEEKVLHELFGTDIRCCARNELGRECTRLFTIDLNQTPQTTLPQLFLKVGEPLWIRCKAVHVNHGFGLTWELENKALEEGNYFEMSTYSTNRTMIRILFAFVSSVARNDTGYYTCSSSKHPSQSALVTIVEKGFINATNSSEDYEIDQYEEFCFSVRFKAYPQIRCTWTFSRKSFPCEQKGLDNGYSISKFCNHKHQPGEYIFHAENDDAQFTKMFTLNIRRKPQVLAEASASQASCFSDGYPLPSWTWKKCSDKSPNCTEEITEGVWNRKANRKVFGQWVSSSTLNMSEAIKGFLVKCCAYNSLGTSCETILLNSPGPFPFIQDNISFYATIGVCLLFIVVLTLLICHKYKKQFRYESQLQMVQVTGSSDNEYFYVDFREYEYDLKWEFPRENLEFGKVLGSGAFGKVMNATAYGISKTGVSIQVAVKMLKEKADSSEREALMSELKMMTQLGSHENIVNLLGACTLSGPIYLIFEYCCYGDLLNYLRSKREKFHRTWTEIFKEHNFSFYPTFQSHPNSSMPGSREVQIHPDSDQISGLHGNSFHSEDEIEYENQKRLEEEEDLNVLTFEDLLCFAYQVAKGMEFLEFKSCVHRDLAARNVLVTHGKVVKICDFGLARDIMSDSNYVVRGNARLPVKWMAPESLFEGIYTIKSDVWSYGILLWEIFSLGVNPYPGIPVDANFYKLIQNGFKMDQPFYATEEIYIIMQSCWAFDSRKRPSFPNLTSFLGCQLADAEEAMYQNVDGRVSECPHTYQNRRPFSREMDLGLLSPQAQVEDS
# [16] = target: Dual specificity protein kinase CLK4 (Homo sapiens) (UniProt Q9HAZ1); experiment: Inhibition of CLK4 (unknown origin) at 1 uM
# [17] = Oral bioavailability in dog at 5 mg/kg by LC-MS/MS analysis; assay type: ADME, organism-based, Canis lupus familiaris; details: in vivo
# [18] = target: Mast/stem cell growth factor receptor Kit (Homo sapiens) (UniProt P10721); experiment: Inhibition of Kit (unknown origin) at 1 uM
# [19] = target: Ephrin type-A receptor 2 (Homo sapiens) (UniProt P29317); experiment: Inhibition of EphA2 (unknown origin) at 1 uM
# [20] = target: Activin receptor type-1 (Homo sapiens) (UniProt Q04771); experiment: Inhibition of ALK2 (unknown origin) at 1 uM
# Chain of Activin receptor type-1 (Homo sapiens) (Q04771 whole entry): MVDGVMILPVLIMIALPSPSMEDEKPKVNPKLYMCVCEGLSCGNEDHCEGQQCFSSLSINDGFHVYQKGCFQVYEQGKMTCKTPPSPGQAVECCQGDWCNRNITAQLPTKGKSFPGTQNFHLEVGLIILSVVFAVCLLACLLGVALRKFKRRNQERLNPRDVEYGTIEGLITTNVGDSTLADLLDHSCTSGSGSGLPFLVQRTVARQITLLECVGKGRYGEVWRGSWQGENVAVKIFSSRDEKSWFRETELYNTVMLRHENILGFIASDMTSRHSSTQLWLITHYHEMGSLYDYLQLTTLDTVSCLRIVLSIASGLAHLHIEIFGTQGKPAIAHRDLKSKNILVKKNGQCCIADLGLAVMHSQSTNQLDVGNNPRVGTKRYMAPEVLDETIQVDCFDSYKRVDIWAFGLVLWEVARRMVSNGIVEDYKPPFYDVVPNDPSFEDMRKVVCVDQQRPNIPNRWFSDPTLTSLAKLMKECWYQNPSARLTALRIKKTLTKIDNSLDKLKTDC
# [21] = target: Angiopoietin-1 receptor (Homo sapiens) (UniProt Q02763); experiment: Inhibition of Tie2 (unknown origin) at 1 uM
# [22] = target: Mitogen-activated protein kinase 12 (Homo sapiens) (UniProt P53778); experiment: Inhibition of p38 gamma (unknown origin) at 1 uM
# [23] = target: Ribosomal protein S6 kinase alpha-1 (Homo sapiens) (UniProt Q15418); experiment: Inhibition of Rsk1 (unknown origin) at 1 uM
# [24] = target: Mitogen-activated protein kinase kinase kinase 9 (Homo sapiens) (UniProt P80192); experiment: Inhibition of MLK1 (unknown origin) at 1 uM
# [25] = target: Serine/threonine-protein kinase PLK2 (Homo sapiens) (UniProt Q9NYY3); experiment: Inhibition of PLK2 (unknown origin) at 1 uM
# [26] = target: Misshapen-like kinase 1 (Homo sapiens) (UniProt Q8N4C8); experiment: Inhibition of Mink1 (unknown origin) at 1 uM
# [27] = target: Serine/threonine-protein kinase Nek9 (Homo sapiens) (UniProt Q8TD19); experiment: Inhibition of NEK9 (unknown origin) at 1 uM
# [28] = target: Dual specificity mitogen-activated protein kinase kinase 1 (Homo sapiens) (UniProt Q02750); experiment: Inhibition of MEK1 (unknown origin) at 1 uM
# [29] = target: Calcium/calmodulin-dependent protein kinase kinase 1 (Homo sapiens) (UniProt Q8N5S9); experiment: Inhibition of CAMKK1 (unknown origin) at 1 uM
# [30] = target: High affinity nerve growth factor receptor (Homo sapiens) (UniProt P04629); experiment: Inhibition of TrkA (unknown origin) at 1 uM
# Chain of High affinity nerve growth factor receptor (Homo sapiens) (P04629 33-796 limits assumed): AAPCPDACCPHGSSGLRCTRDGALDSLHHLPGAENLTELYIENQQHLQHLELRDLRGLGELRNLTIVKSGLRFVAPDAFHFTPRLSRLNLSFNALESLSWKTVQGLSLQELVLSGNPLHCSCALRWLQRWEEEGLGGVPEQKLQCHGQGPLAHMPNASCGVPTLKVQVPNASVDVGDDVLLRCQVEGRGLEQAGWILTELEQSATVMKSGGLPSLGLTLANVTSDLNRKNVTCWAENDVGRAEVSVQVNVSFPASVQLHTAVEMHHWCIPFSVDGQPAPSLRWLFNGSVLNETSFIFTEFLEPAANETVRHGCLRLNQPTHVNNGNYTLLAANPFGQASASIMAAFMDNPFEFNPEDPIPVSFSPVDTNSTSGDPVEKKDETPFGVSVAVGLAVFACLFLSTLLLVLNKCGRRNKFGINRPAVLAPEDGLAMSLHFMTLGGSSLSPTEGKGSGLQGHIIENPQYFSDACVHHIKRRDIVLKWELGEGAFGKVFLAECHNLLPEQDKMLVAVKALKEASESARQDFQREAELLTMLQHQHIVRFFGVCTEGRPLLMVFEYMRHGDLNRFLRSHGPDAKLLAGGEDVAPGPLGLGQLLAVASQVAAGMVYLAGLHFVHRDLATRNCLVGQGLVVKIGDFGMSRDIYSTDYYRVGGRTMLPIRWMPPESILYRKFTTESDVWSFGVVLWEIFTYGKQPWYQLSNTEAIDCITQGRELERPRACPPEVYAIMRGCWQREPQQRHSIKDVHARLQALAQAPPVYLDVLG
# [31] = target: Dual specificity protein kinase TTK (Homo sapiens) (UniProt P33981); experiment: Inhibition of TTK (unknown origin) at 1 uM
# [32] = target: Fibroblast growth factor receptor 1 (Homo sapiens) (UniProt P11362); experiment: Inhibition of FGFR1 (unknown origin) at 1 uM
# [33] = target: 5'-AMP-activated protein kinase catalytic subunit alpha-1 (Homo sapiens) (UniProt Q13131); experiment: Inhibition of PRKAA1 (unknown origin) at 1 uM
# Chain of 5'-AMP-activated protein kinase catalytic subunit alpha-1 (Homo sapiens) (Q13131 whole entry, looked up): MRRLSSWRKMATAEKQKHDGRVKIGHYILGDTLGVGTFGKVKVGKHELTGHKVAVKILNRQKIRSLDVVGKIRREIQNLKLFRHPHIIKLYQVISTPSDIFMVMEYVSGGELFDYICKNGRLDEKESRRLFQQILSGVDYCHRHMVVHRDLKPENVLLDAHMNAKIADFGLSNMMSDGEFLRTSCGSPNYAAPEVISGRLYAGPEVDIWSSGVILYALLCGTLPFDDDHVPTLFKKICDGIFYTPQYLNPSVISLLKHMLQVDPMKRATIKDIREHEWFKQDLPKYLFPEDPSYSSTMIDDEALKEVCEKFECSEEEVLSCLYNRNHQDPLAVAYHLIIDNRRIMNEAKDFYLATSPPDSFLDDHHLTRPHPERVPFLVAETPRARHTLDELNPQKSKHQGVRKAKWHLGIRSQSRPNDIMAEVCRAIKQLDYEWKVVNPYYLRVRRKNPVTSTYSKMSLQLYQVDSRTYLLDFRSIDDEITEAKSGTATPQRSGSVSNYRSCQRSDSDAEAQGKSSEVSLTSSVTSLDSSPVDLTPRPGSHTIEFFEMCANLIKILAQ
# [34] = target: Mitogen-activated protein kinase kinase kinase kinase 5 (Homo sapiens) (UniProt Q9Y4K4); experiment: Inhibition of KHS1 (unknown origin) at 1 uM
# [35] = target: Tyrosine-protein kinase Blk (Homo sapiens) (UniProt P51451); experiment: Inhibition of Blk (unknown origin) at 1 uM
# Chain of Tyrosine-protein kinase Blk (Homo sapiens) (P51451 2-505 limits assumed): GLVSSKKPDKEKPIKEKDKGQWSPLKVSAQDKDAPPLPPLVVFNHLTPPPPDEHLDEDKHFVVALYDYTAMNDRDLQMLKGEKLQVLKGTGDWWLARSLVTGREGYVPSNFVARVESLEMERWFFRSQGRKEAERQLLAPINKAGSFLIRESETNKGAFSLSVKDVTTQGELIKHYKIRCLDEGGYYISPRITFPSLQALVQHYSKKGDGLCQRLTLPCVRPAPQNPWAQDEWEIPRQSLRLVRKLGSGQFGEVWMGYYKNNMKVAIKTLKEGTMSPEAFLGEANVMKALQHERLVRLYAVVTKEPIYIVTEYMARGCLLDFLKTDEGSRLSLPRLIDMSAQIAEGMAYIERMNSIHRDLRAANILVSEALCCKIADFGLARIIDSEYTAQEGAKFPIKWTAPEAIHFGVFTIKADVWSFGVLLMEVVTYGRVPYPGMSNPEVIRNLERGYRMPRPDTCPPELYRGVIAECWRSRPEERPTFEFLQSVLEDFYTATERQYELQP
# [36] = Cytotoxicity against human T cells assessed as cell proliferation
# [37] = target: Serine/threonine-protein kinase Nek4 (Homo sapiens) (UniProt P51957); experiment: Inhibition of NEK4 (unknown origin) at 1 uM
# [38] = target: Tyrosine-protein kinase ABL1 (Homo sapiens) (UniProt P00519); experiment: Inhibition of Abl (unknown origin) at 1 uM
# [39] = target: Phosphatidylinositol 4,5-bisphosphate 3-kinase catalytic subunit alpha isoform (Homo sapiens) (UniProt P42336); experiment: Inhibition of PI3KA (unknown origin) at 1 uM
# [40] = Oral bioavailability in mouse at 5 mg/kg by LC-MS/MS analysis; assay type: ADME, organism-based; details: in vivo
# [41] = target: Dual specificity mitogen-activated protein kinase kinase 6 (Homo sapiens) (UniProt P52564); experiment: Inhibition of MKK6 (unknown origin) at 1 uM
# [42] = system: Salmonella typhimurium; experiment: Genotoxicity in Salmonella typhimurium TA100 by Ames test in absence of S9 fraction; assay type: toxicity, organism-based; details: salmonella enterica subsp. enterica serovar typhimurium
# [43] = system: Canis familiaris; experiment: Clearance in dog at 1 mg/kg, iv by LC-MS/MS analysis; assay type: ADME, organism-based, Canis lupus familiaris; details: in vivo
# [44] = target: Macrophage colony-stimulating factor 1 receptor (Homo sapiens) (UniProt P07333); experiment: Inhibition of CSF1R (unknown origin) at 1 uM
# [45] = target: Ephrin type-A receptor 3 (Homo sapiens) (UniProt P29320); experiment: Inhibition of EphA3 (unknown origin) at 1 uM
# [46] = target: BDNF/NT-3 growth factors receptor (Homo sapiens) (UniProt Q16620); experiment: Inhibition of TrkB (unknown origin) at 1 uM
structure (smiles),measurement,setting,value
Cc1c(-c2cc(Nc3cc4n(n3)CCN(C)C4)c(=O)[nH]n2)ccc(F)c1NC(=O)c1cc2ccccc2s1,inhibition,[1],-4.1%
same,inhibition,[2],8.5%
same,inhibition,[3],8.3%
same,bioavailability,[4],26%
same,inhibition,[5],9.2%
same,inhibition,[6],5.8%
same,inhibition,[7],4.6%
same,inhibition,[8],14.9%
same,inhibition,[9],2.5%
same,inhibition,[10],7.5%
same,inhibition,[11],50%
same,inhibition,[12],1.5%
same,inhibition,[13],-1.2%
same,inhibition,[14],4.7%
same,inhibition,[15],11.6%
same,inhibition,[16],5.8%
same,bioavailability,[17],65%
same,inhibition,[18],1.9%
same,inhibition,[19],8%
same,inhibition,[20],-2.1%
same,inhibition,[21],7.4%
same,inhibition,[22],6.5%
same,inhibition,[23],-0.4%
same,inhibition,[24],-7.5%
same,inhibition,[25],5.8%
same,inhibition,[26],17.8%
same,inhibition,[27],-7.6%
same,inhibition,[28],4.5%
same,inhibition,[29],-5.4%
same,inhibition,[30],-8%
same,inhibition,[31],7.2%
same,inhibition,[32],-3.1%
same,inhibition,[33],-2.2%
same,inhibition,[34],17.3%
same,inhibition,[35],10.6%
same,EC50,[36],> 5 µM
same,inhibition,[37],1%
same,inhibition,[38],11.3%
same,inhibition,[39],5.7%
same,bioavailability,[40],34%
same,inhibition,[41],3%
same,Activity,[42],Non-toxic
same,clearance,[43],14 mL/min/kg
same,inhibition,[44],13%
same,inhibition,[45],-3.9%
same,inhibition,[46],-3.6%
